Experimental data reported in US20210346339A1, “THERAPEUTIC FLAVONOID BASED ANTIVIRAL AGENTS” (priority 2016, published 2021).

Columns and labels:
[1] = tested on: cell culture-derived HCV (HCVcc); type: cell-based, Hepatitis C virus
HCoV-OC43 (VR-1558) = experiment: Anti coronavirus activity: viral CPE inhibition in Vero 76 cells (microscopy, neutral red); type: cell-based; conditions: hCoV-OC43 (beta)
AAK1 = AAK1 (Homo sapiens, UniProt Q2M2I8); experiment: Kinase inhibition assay (HotSpot); type: biochemical; conditions: 10 μM ATP; read-out: Compound IC50, AAK1
AAK1, sequence (Q2M2I8 whole entry): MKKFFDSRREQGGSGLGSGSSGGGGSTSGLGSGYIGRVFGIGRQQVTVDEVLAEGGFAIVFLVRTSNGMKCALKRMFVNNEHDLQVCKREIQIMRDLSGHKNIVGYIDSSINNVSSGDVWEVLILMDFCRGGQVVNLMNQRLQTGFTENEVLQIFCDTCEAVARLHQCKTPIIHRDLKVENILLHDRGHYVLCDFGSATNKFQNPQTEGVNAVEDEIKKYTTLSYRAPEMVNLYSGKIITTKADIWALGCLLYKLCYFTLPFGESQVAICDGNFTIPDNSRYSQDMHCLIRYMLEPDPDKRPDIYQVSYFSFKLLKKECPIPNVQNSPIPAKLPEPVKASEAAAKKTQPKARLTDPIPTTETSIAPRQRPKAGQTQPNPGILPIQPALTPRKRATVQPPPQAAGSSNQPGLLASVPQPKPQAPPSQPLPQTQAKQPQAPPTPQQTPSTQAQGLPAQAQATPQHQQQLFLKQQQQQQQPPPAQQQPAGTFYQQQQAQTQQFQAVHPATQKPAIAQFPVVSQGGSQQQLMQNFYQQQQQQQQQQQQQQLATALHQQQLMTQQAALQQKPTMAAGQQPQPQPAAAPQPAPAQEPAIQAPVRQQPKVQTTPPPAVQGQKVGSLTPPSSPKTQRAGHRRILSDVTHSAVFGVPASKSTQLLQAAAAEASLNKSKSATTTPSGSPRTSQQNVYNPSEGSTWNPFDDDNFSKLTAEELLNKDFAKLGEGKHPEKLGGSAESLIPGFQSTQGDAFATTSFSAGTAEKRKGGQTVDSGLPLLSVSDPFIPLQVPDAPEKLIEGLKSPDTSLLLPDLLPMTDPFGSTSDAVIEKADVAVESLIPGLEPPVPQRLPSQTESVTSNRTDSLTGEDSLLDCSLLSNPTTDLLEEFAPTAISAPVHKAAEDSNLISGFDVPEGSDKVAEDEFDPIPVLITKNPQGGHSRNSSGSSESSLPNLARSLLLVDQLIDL
Source text: (§1) In vitro profiling of lipid and tyrosine kinases was accomplished using the “HotSpot” assay platform.

ABL2 = ABL2 (Homo sapiens, UniProt P42684); experiment: Kinase inhibition assay (HotSpot); type: biochemical; conditions: 10 μM ATP; read-out: Compound IC50, ABL2
ABL2, sequence (P42684 whole entry): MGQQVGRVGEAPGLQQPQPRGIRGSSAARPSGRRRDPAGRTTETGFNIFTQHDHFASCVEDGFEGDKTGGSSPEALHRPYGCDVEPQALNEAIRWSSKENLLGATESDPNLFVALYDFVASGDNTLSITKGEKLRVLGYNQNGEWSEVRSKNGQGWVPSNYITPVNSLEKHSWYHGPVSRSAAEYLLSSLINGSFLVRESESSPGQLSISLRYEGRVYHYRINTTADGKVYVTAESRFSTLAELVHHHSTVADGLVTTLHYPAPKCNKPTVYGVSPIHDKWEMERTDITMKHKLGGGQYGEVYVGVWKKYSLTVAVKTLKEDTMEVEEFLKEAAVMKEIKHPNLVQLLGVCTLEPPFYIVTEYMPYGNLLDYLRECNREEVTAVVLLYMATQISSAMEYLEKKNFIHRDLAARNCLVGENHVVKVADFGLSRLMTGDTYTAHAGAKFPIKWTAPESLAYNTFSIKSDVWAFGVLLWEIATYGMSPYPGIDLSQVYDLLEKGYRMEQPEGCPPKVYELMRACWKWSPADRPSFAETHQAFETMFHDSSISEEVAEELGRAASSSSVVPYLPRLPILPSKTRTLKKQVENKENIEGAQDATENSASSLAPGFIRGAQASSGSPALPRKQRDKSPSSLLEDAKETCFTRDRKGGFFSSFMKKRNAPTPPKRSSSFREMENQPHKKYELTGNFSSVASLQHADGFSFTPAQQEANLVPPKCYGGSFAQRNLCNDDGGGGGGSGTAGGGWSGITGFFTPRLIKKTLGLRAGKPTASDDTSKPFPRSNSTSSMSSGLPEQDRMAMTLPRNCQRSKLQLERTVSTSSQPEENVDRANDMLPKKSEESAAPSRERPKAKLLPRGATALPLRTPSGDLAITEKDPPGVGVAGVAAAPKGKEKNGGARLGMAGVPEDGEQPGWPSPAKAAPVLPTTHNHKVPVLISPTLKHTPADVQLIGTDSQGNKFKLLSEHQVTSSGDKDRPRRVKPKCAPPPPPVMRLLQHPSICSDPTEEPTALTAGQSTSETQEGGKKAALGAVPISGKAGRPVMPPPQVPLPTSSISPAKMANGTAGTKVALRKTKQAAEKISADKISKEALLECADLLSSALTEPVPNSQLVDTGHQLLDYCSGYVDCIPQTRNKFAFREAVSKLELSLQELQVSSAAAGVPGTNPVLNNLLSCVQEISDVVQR
Source text: as §1

BIKE = BIKE (Homo sapiens, UniProt Q9NSY1); experiment: Kinase inhibition assay (HotSpot); type: biochemical; conditions: 10 μM ATP; read-out: Compound IC50, BIKE
BIKE, sequence (Q9NSY1 whole entry): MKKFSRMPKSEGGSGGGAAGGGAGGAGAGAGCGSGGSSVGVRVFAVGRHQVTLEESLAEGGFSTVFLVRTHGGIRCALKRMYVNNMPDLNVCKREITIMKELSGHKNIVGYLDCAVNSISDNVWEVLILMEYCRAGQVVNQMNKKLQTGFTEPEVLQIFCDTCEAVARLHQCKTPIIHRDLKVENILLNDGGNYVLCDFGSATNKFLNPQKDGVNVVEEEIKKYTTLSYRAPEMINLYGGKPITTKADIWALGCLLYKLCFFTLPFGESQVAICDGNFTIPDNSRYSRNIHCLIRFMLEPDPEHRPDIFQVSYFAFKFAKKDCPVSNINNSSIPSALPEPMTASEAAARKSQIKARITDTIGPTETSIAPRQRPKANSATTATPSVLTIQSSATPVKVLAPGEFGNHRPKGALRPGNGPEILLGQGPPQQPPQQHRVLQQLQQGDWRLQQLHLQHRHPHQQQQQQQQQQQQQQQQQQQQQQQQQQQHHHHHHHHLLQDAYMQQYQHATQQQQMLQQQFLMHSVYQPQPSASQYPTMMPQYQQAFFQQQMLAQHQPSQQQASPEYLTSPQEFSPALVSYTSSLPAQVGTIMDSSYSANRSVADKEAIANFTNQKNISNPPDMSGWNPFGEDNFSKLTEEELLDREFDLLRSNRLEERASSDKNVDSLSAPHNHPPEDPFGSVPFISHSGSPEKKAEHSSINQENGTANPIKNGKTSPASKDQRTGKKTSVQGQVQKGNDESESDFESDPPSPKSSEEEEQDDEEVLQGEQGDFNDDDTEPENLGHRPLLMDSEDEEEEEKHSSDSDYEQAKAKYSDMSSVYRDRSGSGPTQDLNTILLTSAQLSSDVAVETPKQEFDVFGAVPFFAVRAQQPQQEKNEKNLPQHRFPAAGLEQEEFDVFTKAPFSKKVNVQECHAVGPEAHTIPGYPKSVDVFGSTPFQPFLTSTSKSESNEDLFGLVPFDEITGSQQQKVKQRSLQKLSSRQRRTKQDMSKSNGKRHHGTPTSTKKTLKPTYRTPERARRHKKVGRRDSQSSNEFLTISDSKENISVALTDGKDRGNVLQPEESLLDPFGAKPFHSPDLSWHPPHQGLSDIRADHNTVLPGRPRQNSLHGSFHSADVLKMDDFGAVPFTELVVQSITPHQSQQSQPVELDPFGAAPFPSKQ
Source text: as §1

CSNK2A1 = CSNK2A1 (Homo sapiens, UniProt P68400); experiment: Kinase inhibition assay (HotSpot); type: biochemical; conditions: 10 μM ATP; read-out: Compound IC50, CSNK2A1
Source text: as §1

CSNK2A2 = CSNK2A2 (Homo sapiens, UniProt P19784); experiment: Kinase inhibition assay (HotSpot); type: biochemical; conditions: 10 μM ATP; read-out: Compound IC50, CSNK2A2
Source text: as §1

GAK = molecular target: T1, GAK (Homo sapiens, UniProt O14976); experiment: Kinase inhibition assay (HotSpot); type: biochemical; conditions: 10 μM ATP; read-out: Compound IC50, GAK
T1 sequence (O14976 1-1311): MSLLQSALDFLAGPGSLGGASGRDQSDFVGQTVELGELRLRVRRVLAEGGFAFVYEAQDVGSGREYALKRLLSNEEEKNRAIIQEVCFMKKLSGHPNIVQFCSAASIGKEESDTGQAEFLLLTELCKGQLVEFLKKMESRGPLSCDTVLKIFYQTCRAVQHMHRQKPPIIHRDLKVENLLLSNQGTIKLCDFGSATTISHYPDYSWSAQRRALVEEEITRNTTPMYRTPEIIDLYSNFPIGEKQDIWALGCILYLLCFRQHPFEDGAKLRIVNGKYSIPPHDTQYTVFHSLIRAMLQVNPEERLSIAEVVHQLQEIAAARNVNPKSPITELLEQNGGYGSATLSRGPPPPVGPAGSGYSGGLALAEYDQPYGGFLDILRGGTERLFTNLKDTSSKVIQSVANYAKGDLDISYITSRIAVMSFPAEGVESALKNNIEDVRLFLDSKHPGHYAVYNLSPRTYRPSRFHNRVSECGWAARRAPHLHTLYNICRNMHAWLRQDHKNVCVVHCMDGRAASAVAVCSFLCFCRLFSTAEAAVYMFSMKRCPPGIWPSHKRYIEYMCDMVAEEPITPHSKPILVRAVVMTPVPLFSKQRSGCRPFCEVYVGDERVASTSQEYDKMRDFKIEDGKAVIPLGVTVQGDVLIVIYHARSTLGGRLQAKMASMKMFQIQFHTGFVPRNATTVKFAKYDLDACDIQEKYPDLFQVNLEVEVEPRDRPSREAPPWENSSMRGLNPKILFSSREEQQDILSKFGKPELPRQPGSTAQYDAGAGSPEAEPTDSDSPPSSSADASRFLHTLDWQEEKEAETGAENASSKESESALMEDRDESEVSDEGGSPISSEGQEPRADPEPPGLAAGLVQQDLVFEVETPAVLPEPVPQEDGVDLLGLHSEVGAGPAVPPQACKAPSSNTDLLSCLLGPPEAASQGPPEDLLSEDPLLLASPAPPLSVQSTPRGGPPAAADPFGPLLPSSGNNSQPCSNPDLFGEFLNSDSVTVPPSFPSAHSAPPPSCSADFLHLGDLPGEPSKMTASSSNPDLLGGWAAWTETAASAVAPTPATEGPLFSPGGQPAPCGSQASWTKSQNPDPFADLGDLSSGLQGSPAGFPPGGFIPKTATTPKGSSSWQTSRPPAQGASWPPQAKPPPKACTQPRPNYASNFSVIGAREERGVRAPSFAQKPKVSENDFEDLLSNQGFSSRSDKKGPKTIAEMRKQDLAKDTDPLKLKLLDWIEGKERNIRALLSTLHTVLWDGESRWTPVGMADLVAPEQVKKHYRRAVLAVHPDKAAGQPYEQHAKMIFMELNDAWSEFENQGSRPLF
Source text: as §1

MNK2 = MNK2 (Homo sapiens, UniProt Q9HBH9); experiment: Kinase inhibition assay (HotSpot); type: biochemical; conditions: 10 μM ATP; read-out: Compound IC50, MNK2
Source text: as §1

PI3Kb = PI3Kb (Homo sapiens, UniProt P42338); experiment: Kinase inhibition assay (HotSpot); type: biochemical; conditions: 10 μM ATP; read-out: Compound IC50, PI3Kb
PI3Kb, sequence (P42338 whole entry): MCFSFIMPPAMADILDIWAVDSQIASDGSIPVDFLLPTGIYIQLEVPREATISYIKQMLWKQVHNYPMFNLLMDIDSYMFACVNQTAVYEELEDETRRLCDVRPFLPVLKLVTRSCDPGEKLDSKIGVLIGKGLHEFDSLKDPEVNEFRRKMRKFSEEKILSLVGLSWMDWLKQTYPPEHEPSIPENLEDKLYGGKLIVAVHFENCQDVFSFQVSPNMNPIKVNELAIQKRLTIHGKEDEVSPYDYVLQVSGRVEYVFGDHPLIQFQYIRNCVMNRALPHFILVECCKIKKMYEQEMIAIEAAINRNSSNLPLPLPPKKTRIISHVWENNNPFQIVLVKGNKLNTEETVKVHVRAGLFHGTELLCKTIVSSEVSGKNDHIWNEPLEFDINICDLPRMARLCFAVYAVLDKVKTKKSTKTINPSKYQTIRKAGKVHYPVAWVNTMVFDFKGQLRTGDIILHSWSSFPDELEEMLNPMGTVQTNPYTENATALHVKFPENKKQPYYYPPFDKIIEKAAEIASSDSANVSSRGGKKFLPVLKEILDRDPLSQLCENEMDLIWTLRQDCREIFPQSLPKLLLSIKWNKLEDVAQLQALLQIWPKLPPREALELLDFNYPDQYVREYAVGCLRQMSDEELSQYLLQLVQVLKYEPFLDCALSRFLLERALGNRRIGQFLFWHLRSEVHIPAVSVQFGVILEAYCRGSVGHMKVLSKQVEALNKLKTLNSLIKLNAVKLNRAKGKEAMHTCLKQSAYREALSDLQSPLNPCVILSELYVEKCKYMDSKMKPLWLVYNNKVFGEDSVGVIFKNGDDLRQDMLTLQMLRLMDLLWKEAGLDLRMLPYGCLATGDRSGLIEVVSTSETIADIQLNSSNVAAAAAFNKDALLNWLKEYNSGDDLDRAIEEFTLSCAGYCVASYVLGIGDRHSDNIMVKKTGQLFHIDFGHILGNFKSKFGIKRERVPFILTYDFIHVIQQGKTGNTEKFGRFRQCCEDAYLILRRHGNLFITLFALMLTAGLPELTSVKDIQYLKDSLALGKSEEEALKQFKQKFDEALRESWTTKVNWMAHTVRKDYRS
PI3Kb, sequence (P27986 whole entry partner): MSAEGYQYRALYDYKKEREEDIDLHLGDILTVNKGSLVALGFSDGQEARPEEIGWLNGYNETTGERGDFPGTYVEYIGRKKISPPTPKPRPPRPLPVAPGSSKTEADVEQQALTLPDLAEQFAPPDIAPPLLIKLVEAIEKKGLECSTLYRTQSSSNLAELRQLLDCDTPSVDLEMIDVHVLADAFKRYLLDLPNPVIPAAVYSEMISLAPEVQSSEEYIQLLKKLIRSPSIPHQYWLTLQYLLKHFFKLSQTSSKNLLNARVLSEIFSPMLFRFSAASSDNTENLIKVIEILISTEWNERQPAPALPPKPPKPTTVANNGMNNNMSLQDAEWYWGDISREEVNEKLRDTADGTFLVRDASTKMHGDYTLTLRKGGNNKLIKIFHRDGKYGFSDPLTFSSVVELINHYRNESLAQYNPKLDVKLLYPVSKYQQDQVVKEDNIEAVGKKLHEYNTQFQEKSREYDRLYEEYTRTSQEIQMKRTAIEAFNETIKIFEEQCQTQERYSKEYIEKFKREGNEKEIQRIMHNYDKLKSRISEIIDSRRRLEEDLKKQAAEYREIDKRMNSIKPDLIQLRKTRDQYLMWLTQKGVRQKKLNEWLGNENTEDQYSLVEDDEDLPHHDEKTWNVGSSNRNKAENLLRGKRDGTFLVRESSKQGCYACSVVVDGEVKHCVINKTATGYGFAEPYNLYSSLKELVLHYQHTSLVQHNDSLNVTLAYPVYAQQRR
Source text: as §1

Compound | EC50 [1] | EC50 (HCoV-OC43 (VR-1558)) | SI (CC50/EC50) (HCoV-OC43 (VR-1558)) | IC50 (AAK1) | IC50 (ABL2) | IC50 (BIKE) | IC50 (CSNK2A1) | IC50 (CSNK2A2) | IC50 (GAK) | IC50 (MNK2) | IC50 (PI3Kb) | CC50 (Vero 76 cells)
Human interferon alpha-2b [rIFNa-2b] | 0.63 IU/mL | – | – | – | – | – | – | – | – | – | – | –
COc1cc(-c2cc(=O)c3c(O)cc(O)c(CC=C(C)C)c3o2)ccc1O [FBL-03G] | – | 0.42 µM | 6.9 | 0.004 µM | 0.274 µM | 0.258 µM | 0.02 µM | 0.004 µM | 0.008 µM | 0.549 µM | 0.136 µM | 2.9 µM
